Assay results taken from US11730720B2, “ALK5 inhibitors” (THERAVANCE BIOPHARMA R&D IP, LLC, priority 2018, dated 2023).

What was measured:
[1] = system: TGF-β-stimulated SMAD3 phosphorylation in BEAS-2B cells; experiment: Cellular ALK5 potency assay, inhibition of TGF-β stimulated pSMAD3 formation in BEAS-2B cells; assay type: cell-based; conditions: Homo sapiens, inhibition of TGF-β (10 ng/mL) stimulated pSMAD3 formation, 1 hour compound incubation, read-out: BEAS2B pIC50 (converted)
How it was run: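 Phospho-SMAD3 was quantified by AlphaLISA in lysates of human lung epithelial BEAS-2B cells. Compound was added 1 h (37 °C, HEPES/BSA-supplemented HBSS) before a 30 min challenge with 10 ng/mL TGF-β. Values are pIC50 relative to stimulated cells without compound.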

[2] = biological target: T1, recombinant human ALK5 (TGF-βR1) protein (Homo sapiens, UniProt P36897); experiment: Biochemical ALK5 (TGF-βR1) assay to measure pKi (LANCE Ultra ULight kinase assay); conditions: apparent pKi, converted from pIC50 using the Cheng-Prusoff equation
T1 construct: purchased Life Technologies PR9075A
T1 sequence (P36897 34-503): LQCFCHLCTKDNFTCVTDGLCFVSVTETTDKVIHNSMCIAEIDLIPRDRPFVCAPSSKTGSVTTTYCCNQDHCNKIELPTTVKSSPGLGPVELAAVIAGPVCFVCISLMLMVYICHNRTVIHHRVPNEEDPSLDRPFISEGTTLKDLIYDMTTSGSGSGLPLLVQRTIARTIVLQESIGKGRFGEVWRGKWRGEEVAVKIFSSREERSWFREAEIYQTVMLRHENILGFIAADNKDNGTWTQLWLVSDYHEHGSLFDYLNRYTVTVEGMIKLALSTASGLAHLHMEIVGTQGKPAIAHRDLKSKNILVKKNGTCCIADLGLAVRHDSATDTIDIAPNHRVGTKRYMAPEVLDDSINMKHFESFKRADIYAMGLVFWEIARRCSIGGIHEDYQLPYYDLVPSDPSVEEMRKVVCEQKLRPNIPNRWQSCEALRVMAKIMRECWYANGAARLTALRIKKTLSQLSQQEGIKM
How it was run: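 TR-FRET kinase format: compound dose range 10 μM–25 pM equilibrated 60 min with human ALK5 and ULight-labelled topoisomerase 2α peptide in HEPES/MgCl2 buffer pH 7.5 with DTT. Reaction started with ATP (125 μM stock, 5× final), 60 min at 37° C, stopped with EDTA/Eu-anti-phospho antibody; pKi derived from pIC50 via Cheng-Prusoff.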

| Ki [2] [nM] | SMILES | IC50 [1] [nM] |
| --- | --- | --- |
| 0.0398 to 0.316 | Fc1ccc(Cl)cc1-c1[nH]cnc1-c1ccc2ncc(-c3cnn(C4CCCNC4)c3)cc2n1 (stereo not drawn) [Compound 2-18, 2-[5-(5-chloro-2-fluoro-phenyl)-1H-imidazol-4-yl]-7-[1-(3-piperidyl)pyrazol-4-yl]-1,5-naphthyridine] | 25.1 to 158 |
| 0.0398 to 0.316 | CN(C)C1CCN(c2cnc3ccc(-c4c[nH]nc4-c4cc(Cl)c(F)cc4F)nc3c2)C1 (racemic) [Compound 6-22, rac-(3S)-1-[6-[3-(5-chloro-2,4-difluoro-phenyl)-1H-pyrazol-4-yl]-1,5-naphthyridin-3-yl]-N,N-dimethyl-pyrrolidin-3-amine] | 25.1 to 158 |
| 3.98 to 31.6 | COCc1cccc(-c2n[nH]cc2-c2ccc3ncc(N4CCC(N(C)C)C4)cc3n2)c1 (racemic) [Compound 14-4, rac-(3S)-1-[6-[3-[3-(methoxymethyl)phenyl]-1H-pyrazol-4-yl]-1,5-naphthyridin-3-yl]-N,N-dimethyl-pyrrolidin-3-amine] | 25.1 to 158 |
| 0.398 to 3.16 | Fc1ccc(Cl)cc1-c1n[nH]cc1-c1ccc2ncc(-c3ncc4n3CCN4)cc2n1 [Compound 1-129, 2-[3-(5-chloro-2-fluoro-phenyl)-1H-pyrazol-4-yl]-7-(2,3-dihydro-1H-imidazo[1,2-c]imidazol-5-yl)-1,5-naphthyridine] | 200 to 1260 |
| 0.0398 to 0.316 | CN1CCN(CCNc2cnc3ccc(-c4c[nH]nc4-c4cc(Cl)c(F)cc4F)nc3c2)CC1 [Compound 6-2, 6-[3-(5-chloro-2,4-difluoro-phenyl)-1H-pyrazol-4-yl]-N-[2-(4-methylpiperazin-1-yl)ethyl]-1,5-naphthyridin-3-amine] | ≤ 20 |
| 0.0398 to 0.316 | CN(C)C1CCN(c2cnc3ccc(-c4c[nH]nc4-c4cc(Cl)ccc4F)nc3c2)CC1 [Compound 1-45, 1-[6-[3-(5-chloro-2-fluoro-phenyl)-1H-pyrazol-4-yl]-1,5-naphthyridin-3-yl]-N,N-dimethyl-piperidin-4-amine] | ≤ 20 |
| ≤ 0.0316 | CC(C)NCCN1CCN(c2cnc3ccc(-c4c[nH]nc4-c4cc(Cl)ccc4F)nc3c2)CC1 [Compound 1-76, N-[2-[4-[6-[3-(5-chloro-2-fluoro-phenyl)-1H-pyrazol-4-yl]-1,5-naphthyridin-3-yl]piperazin-1-yl]ethyl]propan-2-amine] | 25.1 to 158 |
| ≤ 0.0316 | NC1CCN(c2cnc3ccc(-c4c[nH]nc4-c4cc(Cl)c(F)cc4F)nc3c2)C1 (stereo not drawn) [Compound 6-34, 1-[6-[3-(5-chloro-2,4-difluoro-phenyl)-1H-pyrazol-4-yl]-1,5-naphthyridin-3-yl]pyrrolidin-3-amine] | ≤ 20 |
| 0.0398 to 0.316 | Fc1ccc(Cl)cc1-c1[nH]cnc1-c1ccc2ncc(NCCN3CCCC3)cc2n1 [Compound 2-26, 6-[5-(5-chloro-2-fluoro-phenyl)-1H-imidazol-4-yl]-N-(2-pyrrolidin-1-ylethyl)-1,5-naphthyridin-3-amine] | ≤ 20 |
| 0.0398 to 0.316 | Fc1ccc(Cl)cc1-c1n[nH]cc1-c1ccc2ncc(Nc3ccc(N4CCNCC4)cn3)cc2n1 [Compound 1-15, 6-(3-(5-chloro-2-fluorophenyl)-1H-pyrazol-4-yl)-N-(5-(piperazin-1-yl)pyridin-2-yl)-1,5-naphthyridin-3-amine] | 25.1 to 158 |
| 0.0398 to 0.316 | Fc1cc(F)c(-c2[nH]cnc2-c2ccc3ncc(NCCN4CCNCC4)cc3c2)cc1Cl [Compound 22-5, 6-[5-(5-chloro-2,4-difluoro-phenyl)-1H-imidazol-4-yl]-N-(2-piperazin-1-ylethyl)quinolin-3-amine] | 25.1 to 158 |
| 0.0398 to 0.316 | CC1CN(c2cnc3ccc(-c4c[nH]nc4-c4cc(Cl)ccc4F)nc3c2)CC(C)N1CCN (stereo not drawn) [Compound 1-122, 2-[4-[6-[3-(5-chloro-2-fluoro-phenyl)-1H-pyrazol-4-yl]-1,5-naphthyridin-3-yl]-2,6-dimethyl-piperazin-1-yl]ethanamine] | 25.1 to 158 |
| ≤ 0.0316 | CN(C)C1CCN(c2cnc3ccc(-c4c[nH]nc4-c4cc(Cl)ccc4F)nc3c2)C1 (racemic) [Compound 1-34, rac-(3S)-1-[6-[3-(5-chloro-2-fluoro-phenyl)-1H-pyrazol-4-yl]-1,5-naphthyridin-3-yl]-N,N-dimethyl-pyrrolidin-3-amine] | 25.1 to 158 |
| 0.398 to 3.16 | Cc1nn2c(c1-c1cnc3ccc(-c4c[nH]nc4-c4cc(Cl)ccc4F)nc3c1)NCCC2 [Compound 1-120, 2-[3-(5-chloro-2-fluoro-phenyl)-1H-pyrazol-4-yl]-7-(2-methyl-4,5,6,7-tetrahydropyrazolo[1,5-a]pyrimidin-3-yl)-1,5-naphthyridine] | 25.1 to 158 |
| 0.0398 to 0.316 | Fc1ccc(Cl)cc1-c1[nH]nnc1-c1ccc2ncc(-c3cn[nH]c3)cc2c1 [Compound 18-2, 6-[5-(5-chloro-2-fluoro-phenyl)-1H-triazol-4-yl]-3-(1H-pyrazol-4-yl)quinoline] | ≤ 20 |
| 3.98 to 31.6 | CC(C)N1CCN(c2cnc3ccc(-c4c[nH]nc4-c4ccccc4F)nc3c2)CC1 [Compound 11-3, 2-[3-(2-fluorophenyl)-1H-pyrazol-4-yl]-7-(4-isopropylpiperazin-1-yl)-1,5-naphthyridine] | 25.1 to 158 |
| 0.0398 to 0.316 | Fc1ccc(Cl)cc1-c1[nH]cnc1-c1ccc2ncc(N3CCNCC3)cc2n1 [Compound 2-8, 2-[5-(5-chloro-2-fluoro-phenyl)-1H-imidazol-4-yl]-7-piperazin-1-yl-1,5-naphthyridine] | ≤ 20 |
| 0.0398 to 0.316 | CNCCn1ccc(-c2cnc3ccc(-c4c[nH]nc4-c4cc(Cl)ccc4F)nc3c2)n1 [Compound 1-92, 2-[3-[6-[3-(5-chloro-2-fluoro-phenyl)-1H-pyrazol-4-yl]-1,5-naphthyridin-3-yl]pyrazol-1-yl]-N-methyl-ethanamine] | ≤ 20 |
| 0.0398 to 0.316 | Fc1ccc(Cl)cc1-c1[nH]cnc1-c1ccc2ncc(Nc3ccc(N4CCNCC4)cn3)cc2n1 [Compound 2-4, 6-[5-(5-chloro-2-fluoro-phenyl)-1H-imidazol-4-yl]-N-(5-piperazin-1-yl-2-pyridyl)-1,5-naphthyridin-3-amine] | 25.1 to 158 |
| 0.398 to 3.16 | CC(C)NC(=O)[C@H]1CN(c2cnc3ccc(-c4c[nH]nc4-c4cc(Cl)ccc4F)nc3c2)CCN1 [Compound 1-66, (R)-4-(6-(3-(5-Chloro-2-fluorophenyl)-1H-pyrazol-4-yl)-1,5-naphthyridin-3-yl)-N-isopropylpiperazine-2-carboxamide] | 25.1 to 158 |
| 0.0398 to 0.316 | CN1CCN(CCNc2cnc3ccc(-c4c[nH]nc4-c4cc(Cl)ccc4F)nc3c2)CC1 [Compound 1-12, 6-[3-(5-chloro-2-fluoro-phenyl)-1H-pyrazol-4-yl]-N-[2-(4-methylpiperazin-1-yl)ethyl]-1,5-naphthyridin-3-amine] | ≤ 20 |
| 0.0398 to 0.316 | CN1CCN(C2CCN(c3cnc4ccc(-c5nc[nH]c5-c5cc(Cl)ccc5F)cc4c3)CC2)CC1 [Compound 17-7, 6-[5-(5-chloro-2-fluoro-phenyl)-1H-imidazol-4-yl]-3-[4-(4-methylpiperazin-1-yl)-1-piperidyl]quinoline] | 25.1 to 158 |
| 0.398 to 3.16 | CNCCn1ccc(-c2cnc3ccc(-c4c[nH]nc4-c4cccc(COC)c4)nc3c2)n1 [Compound 14-10, 2-[3-[6-[3-[3-(methoxymethyl)phenyl]-1H-pyrazol-4-yl]-1,5-naphthyridin-3-yl]pyrazol-1-yl]-N-methyl-ethanamine] | 25.1 to 158 |
| 3.98 to 31.6 | O=C(O)[C@H]1CN(c2cnc3ccc(-c4nc[nH]c4-c4cc(Cl)c(F)cc4F)cc3c2)CCN1 [Compound 22-6, (2R)-4-[6-[5-(5-chloro-2,4-difluoro-phenyl)-1H-imidazol-4-yl]-3-quinolyl]piperazine-2-carboxylic acid] | 1580 to 10000 |
| 0.398 to 3.16 | O=C(O)Cn1cc(-c2cnc3ccc(-c4c[nH]nc4-c4ccc(F)c(F)c4)nc3c2)cn1 [Compound 8-18, 2-[4-[6-[3-(3,4-difluorophenyl)-1H-pyrazol-4-yl]-1,5-naphthyridin-3-yl]pyrazol-1-yl]acetic acid] | 25.1 to 158 |
| ≤ 0.0316 | CC(C)NC1CC=C(c2cnc3ccc(-c4c[nH]nc4-c4ccc(F)c(F)c4)nc3c2)CC1 (stereo not drawn) [Compound 8-24, 4-(6-(3-(3,4-difluorophenyl)-1H-pyrazol-4-yl)-1,5-naphthyridin-3-yl)-N-isopropylcyclohex-3-en-1-amine] | ≤ 20 |
| 0.0398 to 0.316 | CNC(=O)[C@@H]1CN(c2cnc3ccc(-c4c[nH]nc4-c4cc(Cl)ccc4F)nc3c2)CCN1 [Compound 1-58, (2S)-4-[6-[3-(5-chloro-2-fluoro-phenyl)-1H-pyrazol-4-yl]-1,5-naphthyridin-3-yl]-N-methyl-piperazine-2-carboxamide] | 25.1 to 158 |
